Test results from patent US6015809A (priority 1999, dated 2000).
In brackets after ≈: the same amount, converted by molar mass. Read-outs that look alike come from different tables or passages of the source.

Columns and labels:
Assay in all cases: Antifungal activity, MIC microdilution
Assay type in all cases: cell-based
Aspergillus fumigatus = settings: strain ATCC 26933, RPMI 1640, 35° C., 24-48 hours
Protocol: (§1) Antifungal activity for the compounds of this invention was established by evaluating a representative compound of this invention (Compound I) against several strains of fungi. Briefly the following procedure was used to evaluate such activity. A 96 U-bottom microtiter plate was filled (50 μl/well) with RPMI 1640. The compounds to be evaluated were placed in appropriate wells, and serial diluted in successive wells to provide 11 dilutions. The concentrations ranged from 64 through 0.06 μg/ml. An adjusted inoculum of fungi (50 μl) was added to each well and the plates were incubated at 35° C. for 24-48 hours.

Candida glabrata = settings: strain ATCC 90030, RPMI 1640, 35° C., 24-48 hours
Protocol: as §1

Candida krussii = settings: strain 94-2, RPMI 1640, 35° C., 24-48 hours
Protocol: as §1

Candida parapsilosis = settings: RPMI 1640, 35° C., 24-48 hours
Protocol: as §1

Candida tropicalis = settings: RPMI 1640, 35° C., 24-48 hours
Protocol: as §1

Cryptococcus neoformans = settings: strain ATCC 90112, RPMI 1640, 35° C., 24-48 hours
Protocol: as §1

[1] = test system: Filobasidiella neoformans; settings: strain ATCC 7472, RPMI 1640, 35° C., 24-48 hours
Protocol: as §1

Aspergillus flavus = test system: Aspergillus flavus
Protocol: as §1, with “Briefly” for “Antifungal activity for the compounds of this invention was established by evaluating a representative compound of this invention (Compound I) against several strains of fungi. Briefly”

Aspergillus niger = settings: strain S-430, RPMI 1640, 35° C., 24-48 hours
Protocol: as §1, with “Briefly” for “Antifungal activity for the compounds of this invention was established by evaluating a representative compound of this invention (Compound I) against several strains of fungi. Briefly”

Candida albicans = settings: RPMI 1640, 35° C., 24-48 hours
Protocol: as §1, with “Briefly” for “Antifungal activity for the compounds of this invention was established by evaluating a representative compound of this invention (Compound I) against several strains of fungi. Briefly”

Candida lusitaniae = settings: Clavispora lusitaniae; strain 94-3; RPMI 1640, 35° C., 24-48 hours; read-out: MIC
Protocol: as §1, with “Briefly” for “Antifungal activity for the compounds of this invention was established by evaluating a representative compound of this invention (Compound I) against several strains of fungi. Briefly”

Candida pseudotropicalis = settings: strain ATCC 28838, RPMI 1640, 35° C., 24-48 hours
Protocol: as §1, with “Briefly” for “Antifungal activity for the compounds of this invention was established by evaluating a representative compound of this invention (Compound I) against several strains of fungi. Briefly”

Candida rugosa = settings: strain 94-10, RPMI 1640, 35° C., 24-48 hours
Protocol: as §1, with “Briefly” for “Antifungal activity for the compounds of this invention was established by evaluating a representative compound of this invention (Compound I) against several strains of fungi. Briefly”

Candida zeylanoided = settings: strain 94-15, RPMI 1640, 35° C., 24-48 hours
Protocol: as §1, with “Briefly” for “Antifungal activity for the compounds of this invention was established by evaluating a representative compound of this invention (Compound I) against several strains of fungi. Briefly”

Saccharomyces cerevisiae = test system: Saccharomyces cerevisiae
Protocol: as §1, with “Briefly” for “Antifungal activity for the compounds of this invention was established by evaluating a representative compound of this invention (Compound I) against several strains of fungi. Briefly”

[2] = Aspergillus fumigatus, ATCC26933, read-out: MIC
[3] = Nakaseomyces glabratus, ATCC90030, read-out: MIC
[4] = Lodderomyces parapsilosis, ATCC90018, strain ATCC 90018, read-out: MIC
[5] = Lodderomyces parapsilosis, strain 94-8, read-out: MIC
[6] = Lodderomyces parapsilosis, strain 94-9, read-out: MIC
[7] = Candida tropicalis, strain 94-14, read-out: MIC
[8] = Cryptococcus neoformans, ATCC90112, read-out: MIC
[9] = Cryptococcus neoformans, ATCC7472, read-out: MIC
[10] = Aspergillus flavus, ATCC12963, strain ATCC 12963, RPMI 1640, 35° C., 24-48 hours, read-out: MIC
[11] = Aspergillus niger, read-out: MIC
[12] = Candida albicans, ATCC90028, strain ATCC 90028
[13] = Kluyveromyces marxianus, ATCC28838, read-out: MIC
[14] = Saccharomyces cerevisiae, ATCC2601, strain ATCC 2601, RPMI 1640, 35° C., 24-48 hours, read-out: MIC

SMILES	MIC (Aspergillus fumigatus; [2])	MIC (Candida glabrata; [3])	MIC (Candida krussii; Candida, read-out: MIC)	MIC (Candida parapsilosis; [4])	MIC (Candida parapsilosis; [5])	MIC (Candida parapsilosis; [6])	MIC (Candida tropicalis; [7])	MIC (Candida tropicalis; strain 94-13)	MIC (Cryptococcus neoformans; [8])	MIC [1, 9]	MIC (Aspergillus flavus; [10])	MIC (Aspergillus niger; [11])	MIC (Candida albicans; [12])	MIC (Candida albicans; Candida albicans, strain 94-1)	MIC (Candida albicans; Candida albicans, strain 1063)	MIC (Candida albicans; Candida albicans, strain 1117)	MIC (Candida lusitaniae)	MIC (Candida pseudotropicalis; [13])	MIC (Candida rugosa; Diutina rugosa, read-out: MIC)	MIC (Candida zeylanoided; Candida, read-out: MIC)	also measured
OC(Cn1cncn1)(Cn1cncn1)c1ccc(F)cc1F [Fluconazole]	> 16 µg/mL	4 µg/mL (≈ 13.1 µM)	≥ 16 µg/mL	0.5 µg/mL (≈ 1.63 µM)	0.5 µg/mL (≈ 1.63 µM)	0.5 µg/mL (≈ 1.63 µM)	≥ 16 µg/mL	≥ 16 µg/mL	8 µg/mL (≈ 26.1 µM)	16 µg/mL (≈ 52.2 µM)	> 16 µg/mL	> 16 µg/mL	≥ 16 µg/mL	≥ 16 µg/mL	4 µg/mL (≈ 13.1 µM)	8 µg/mL (≈ 26.1 µM)	1 µg/mL (≈ 3.27 µM)	≤ 0.12 µg/mL	2 µg/mL (≈ 6.53 µM)	≥ 16 µg/mL	MIC (Candida albicans; Candida albicans, strain C-83): ≥ 16 µg/mL; MIC (Saccharomyces cerevisiae; [14]): 8 µg/mL (≈ 26.1 µM)
CC1C=CC=CC=CC=CC=CC=CC=CC(OC2OC(C)C(O)C(N)C2O)CC2OC(O)(CC(O)CC(O)C(O)CCC(O)CC(O)CC(=O)OC(C)C(C)C1O)CC(O)C2C(=O)O (stereo not drawn) [Amphtericin B]	0.25 µg/mL (≈ 0.271 µM)	0.25 µg/mL (≈ 0.271 µM)	0.5 µg/mL (≈ 0.541 µM)	≤ 0.12 µg/mL	0.25 µg/mL (≈ 0.271 µM)	0.5 µg/mL (≈ 0.541 µM)	0.25 µg/mL (≈ 0.271 µM)	0.25 µg/mL (≈ 0.271 µM)	≤ 0.12 µg/mL	0.12 µg/mL (≈ 0.13 µM)	2 µg/mL (≈ 2.16 µM)	0.25 µg/mL (≈ 0.271 µM)	–	–	–	–	≤ 0.12 µg/mL	0.25 µg/mL (≈ 0.271 µM)	0.25 µg/mL (≈ 0.271 µM)	0.25 µg/mL (≈ 0.271 µM)	MIC (Candida albicans; Candida albicans, ATCC90028, strain ATCC 90028, read-out: MIC): 0.25 µg/mL (≈ 0.271 µM); MIC (Candida albicans; Candida albicans, strain 94-1, read-out: MIC): ≤ 0.12 µg/mL; MIC (Candida albicans; Candida albicans, strain 1063, read-out: MIC): 0.25 µg/mL (≈ 0.271 µM); MIC (Candida albicans; Candida albicans, strain 1117, read-out: MIC): 0.25 µg/mL (≈ 0.271 µM); MIC (Candida albicans; Candida albicans, strain C-83, read-out: MIC): 0.25 µg/mL (≈ 0.271 µM); MIC (Saccharomyces cerevisiae; Saccharomyces cerevisiae, ATCC2601): ≤ 0.12 µg/mL
C[C@@H]1[C@H](O)[C@@H](C)/C=C/C=C/CC/C=C/C=C/C=C/C=C/C(O[C@H]2O[C@H](C)[C@@H](O)[C@H](N)[C@@H]2O)CC2O[C@](O)(CC(O)C(O)CCC(O)CC(O)CC(O)CC(=O)O[C@H]1C)CC(O)C2C(=O)O (stereo partly drawn) [Nystatin]	–	–	–	–	–	–	–	1 µg/mL (≈ 1.08 µM)	–	–	–	–	–	–	–	–	–	–	–	–	MIC (Aspergillus fumigatus): 1 µg/mL (≈ 1.08 µM); MIC (Candida glabrata): 1 µg/mL (≈ 1.08 µM); MIC (Candida krussii): 2 µg/mL (≈ 2.16 µM); MIC (Candida parapsilosis; strain 94-8): 1 µg/mL (≈ 1.08 µM); MIC (Candida parapsilosis; strain 94-9): 1 µg/mL (≈ 1.08 µM); MIC (Candida parapsilosis; strain ATCC 90018): 1 µg/mL (≈ 1.08 µM); MIC (Candida tropicalis; strain 94-14): 2 µg/mL (≈ 2.16 µM); MIC (Cryptococcus neoformans): 0.5 µg/mL (≈ 0.54 µM); MIC [1]: 0.5 µg/mL (≈ 0.54 µM); MIC (Aspergillus flavus; strain ATCC 12963, RPMI 1640, 35° C., 24-48 hours): ≥ 16 µg/mL; MIC (Aspergillus niger): 4 µg/mL (≈ 4.32 µM); MIC (Candida albicans; strain 94-1): 2.0 µg/mL (≈ 2.16 µM); MIC (Candida albicans; strain 1063): 2 µg/mL (≈ 2.16 µM); MIC (Candida albicans; strain 1117): 1 µg/mL (≈ 1.08 µM); MIC (Candida albicans; strain ATCC 90028): 1 µg/mL (≈ 1.08 µM); MIC (Candida albicans; strain C-83): 2 µg/mL (≈ 2.16 µM); MIC (Candida pseudotropicalis): 1 µg/mL (≈ 1.08 µM); MIC (Candida rugosa): 2 µg/mL (≈ 2.16 µM); MIC (Candida zeylanoided): 1 µg/mL (≈ 1.08 µM); MIC (Saccharomyces cerevisiae; strain ATCC 2601, RPMI 1640, 35° C., 24-48 hours): 2 µg/mL (≈ 2.16 µM)
Clc1ccc(COC(Cn2ccnc2)c2ccc(Cl)cc2Cl)c(Cl)c1 (stereo not drawn) [Miconazole]	1 µg/mL (≈ 2.4 µM)	≤ 0.12 µg/mL	2 µg/mL (≈ 4.81 µM)	≤ 0.12 µg/mL	0.25 µg/mL (≈ 0.601 µM)	0.5 µg/mL (≈ 1.2 µM)	4 µg/mL (≈ 9.61 µM)	4 µg/mL (≈ 9.61 µM)	≤ 0.12 µg/mL	0.25 µg/mL (≈ 0.601 µM)	–	4 µg/mL (≈ 9.61 µM)	0.5 µg/mL (≈ 1.2 µM)	8 µg/mL (≈ 19.2 µM)	1 µg/mL (≈ 2.4 µM)	1 µg/mL (≈ 2.4 µM)	≤ 0.12 µg/mL	≤ 0.12 µg/mL	≤ 0.12 µg/mL	0.25 µg/mL (≈ 0.601 µM)	MIC (Aspergillus flavus; Aspergillus flavus, ATCC12963): 0.5 µg/mL (≈ 1.2 µM); MIC (Candida albicans; Candida albicans, strain C-83): 8 µg/mL (≈ 19.2 µM); MIC (Saccharomyces cerevisiae; [14]): ≤ 0.12 µg/mL
